# Entries after “also recorded” stand apart in the source; their conditions may differ. Read-outs that look alike come from different tables or passages of the source. Positions of bridges follow the written chain, without caps; N, C: chain ends. Residues, ends and D or L forms follow the SMILES beside them.
# Experiments:
# [1] = test system: SFTSV; conditions: cited from earlier work
# [2] = test system: SFTSV; assay: microbe, parasite or virus in culture; assay type: cell-based, SFTSV HB29 strain; conditions: for IC50: Severe fever with thrombocytopenia syndrome virus
# [3] = test system: SFTSV; assay type: cell-based, SFTSV HB29 strain
# [4] = test system: SFTSV; assay type: cell-based, SFTSV HB29 strain; remark: listed apart in the source
# [5] = test system: SFTSV; assay type: cell-based, SFTSV HB29 strain; remark: listed apart in the source
# [6] = test system: SFTSV Gc glycoprotein; conditions: cited from earlier work
structure (smiles),measurement,setting,value
NC(=O)c1nc(F)c[nH]c1=O [Favipiravir],anti-SFTSV activity in vitro and in vivo,[1],exhibit in vitro and in vivo activity against SFTSV
same,broad-spectrum antiviral effects,[1],"broad-spectrum antiviral effects against various RNA viruses, including SFTSV"
same,IC50,"[2]; Huh-7, read-out: Favipiravir IC50, alone",1.25 ± 0.101 µg/mL
same,IC50,"[2]; Huh-7, read-out: Favipiravir IC50, with HKU-P1 62.5 μg/mL",0.979 ± 0.194 µg/mL
same,IC50,"[2]; Huh-7, read-out: Favipiravir IC50, with HKU-P1 125 μg/mL",0.864 ± 0.132 µg/mL
same,IC50,"[2]; Huh-7, read-out: Favipiravir IC50, with HKU-P1 250 μg/mL",0.805 ± 0.105 µg/mL
N=C(N)NCCC[C@@H]1NC(=O)[C@@H](NC(=O)[C@@H](N)CCCCN)CCCCNC(=O)[C@H](CO)NC(=O)CNC(=O)[C@H](Cc2ccccc2)NC(=O)CNC1=O [HKU-P1] (H-KKRGFGS; lactam 2-C),"viral load reduction, post-infection group",[3],no significant viral load reduction
same,"viral load reduction, pre-infection group",[3],no significant viral load reduction
same,SFTSV-NP expression (immunofluorescence),[4],markedly reduced
same,combination effect (in words),[2],synergistic antiviral effects in vitro; also recorded: consistently synergistic with favipiravir at different concentrations
same,anti-SFTSV activity (in words),[5],best anti-SFTSV activity; also recorded: displayed anti-SFTSV effects
same,dose dependence of viral load reduction,[5],reduced SFTSV viral load in a dose-dependent manner
same,reduction in SFTSV viral RNA load,[5],> 50%
Oc1c(Cl)cc(Cl)c(Cl)c1Cc1c(O)c(Cl)cc(Cl)c1Cl [hexachlorophene],likely target,[6],likely targets the SFTSV Gc glycoprotein
same,anti-SFTSV activity,[1],inhibited SFTSV replication at low micromolar concentrations

# — PMC8539749 (Viruses, 2021)
